In patent EP4729529A1, “PREPARATION OF PEPTIDE INHIBITOR OF INTERLEUKIN-23 RECEPTOR AND USE THEREOF” (Xizang Haisco Pharmaceutical Co., Ltd., priority 2023, dated 2024) one finds IC50 data, which are given here for six molecules.

Positions of bridges follow the written chain, without caps; N, C: chain ends. Non-standard residues stand in square brackets, D forms with d. Residues, ends and D or L forms follow the SMILES beside them. Phe(4-OC2H4NH2,2,3-(CH2)3) = NCCOc1ccc(C[C@H](N)C(=O)O)c2c1CCC2; Trp(7-cPr) = N[C@@H](Cc1c[nH]c2c(C3CC3)cccc12)C(=O)O; Trp(7-Me) = Cc1cccc2c(C[C@H](N)C(=O)O)c[nH]c12; 2Nal = N[C@@H](Cc1ccc2ccccc2c1)C(=O)O; Thp(SO2) = NC1(C(=O)O)CCS(=O)(=O)CC1; AEF = NCCOc1ccc(C[C@H](N)C(=O)O)cc1; 3Pal = N[C@@H](Cc1cccnc1)C(=O)O; Cit = NC(=O)NCCC[C@H](N)C(=O)O; Pen = CC(C)(S)[C@H](N)C(=O)O; Dab = NCC[C@H](N)C(=O)O; Thp = NC1(C(=O)O)CCOCC1; Sar = CNCC(=O)O

Test [1] deals with (Homo sapiens, UniProt Q5VWK5). The test can be described thus: IL-23-stimulated pSTAT3 detection assay in PBMCs (ELISA). Format: cell-based. The conditions noted are these: rhIL23 stimulation 30 minutes, read-out: pSTAT3 inhibition/IC50. How it is done: 3. IL-23-stimulated pSTAT3 detection assay in PBMCs
Cryopreserved human PBMCs were thawed, and seeded onto a plate previously covered with an anti-CD3 antibody at 1 × 10^6 cells/well. Then, an anti-CD28 antibody was added to the plate, and the cells were incubated at 37°C with 5% CO2 for 5 days. On Day 5, the cells were seeded onto a 96-well plate at a density of 100K cells/well after 4 hours of stimulation by FBS starvation. The diluted Compound was transferred into the 96-well cell culture plate, and the plate was incubated at 37°C with 5% CO2 for 1 hour. rhIL23 (R&D, 1290-IL) was added to the cell culture plate, and the plate was incubated at 37°C with 5% CO2 for 30 minutes. The cells in the wells were lysed on ice with a lysis buffer containing 1× PHOSstop solution for 30 minutes, and the plate was centrifuged at 1000 rpm for 1 minute. Then, the supernatant was transferred into a 96-well ELISA plate, and pSTAT3 ELISA assay was performed according to the instructions of the kit (CST, 7300CA). Absorbance values at […] were read on PHERAstar FSX (BMG LRBTECH). The inhibition rate of the compounds was assessed using the following formula, and IC50 values were obtained by fitting with Graphpad.
(§1) Calculation formula of inhibition rate: [formula] • where Data negative: mean of DMSO control group; and • Data positive: mean of non-IL23-stimulated group
The calculation formula of IC50 was as follows: Y = Bottom + (Top−Bottom)/(1+10^(∧)((LogIC50−X)*HillSlope)) [formula] • where X: concentration of compound; and • Y: inhibition rate of compound. Table 3. pSTAT3 inhibition

The next test deals with T1, IL-23α/IL-12β and IL-23R (Homo sapiens, UniProt Q5VWK5).
T1 construct: purchased ACRO ILR-H82F3 (IL-23R); ILB-H52W5 (IL-23α/IL-12β)
T1 sequence (Q5VWK5 24-353 limits assumed): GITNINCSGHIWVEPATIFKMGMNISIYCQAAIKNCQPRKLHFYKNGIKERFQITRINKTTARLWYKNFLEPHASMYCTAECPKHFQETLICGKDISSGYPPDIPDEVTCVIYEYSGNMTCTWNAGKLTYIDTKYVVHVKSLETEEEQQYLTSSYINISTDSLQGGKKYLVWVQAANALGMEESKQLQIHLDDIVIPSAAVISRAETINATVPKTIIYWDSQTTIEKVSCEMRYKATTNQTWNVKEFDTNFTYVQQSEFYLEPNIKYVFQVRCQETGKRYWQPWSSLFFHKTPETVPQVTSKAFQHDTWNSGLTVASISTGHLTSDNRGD
The test can be described thus: IL-23α/IL-12β and IL-23R binding assay (TR-FRET/HTRF). Conditions: inhibition of the binding of IL-23α/IL-12β to IL-23R, TR-FRET; both proteins 0.3 nM. An outline of the steps: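 TR-FRET with IL-23α/IL-12β and IL-23R each at 0.3 nM in PPI buffer; compound preincubated with IL-23α/IL-12β 60 min at 25°C, then IL-23R and Tb/d2 detection reagents added for 60 min. HTRF 665/620 ratio; IC50 by nonlinear regression.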

Another test concerns the target T2, IL-23R (Homo sapiens, UniProt Q5VWK5).
T2 construct: host or cells: HEK-blue IL23 reporter gene cell line
T2 sequence (Q5VWK5 24-629): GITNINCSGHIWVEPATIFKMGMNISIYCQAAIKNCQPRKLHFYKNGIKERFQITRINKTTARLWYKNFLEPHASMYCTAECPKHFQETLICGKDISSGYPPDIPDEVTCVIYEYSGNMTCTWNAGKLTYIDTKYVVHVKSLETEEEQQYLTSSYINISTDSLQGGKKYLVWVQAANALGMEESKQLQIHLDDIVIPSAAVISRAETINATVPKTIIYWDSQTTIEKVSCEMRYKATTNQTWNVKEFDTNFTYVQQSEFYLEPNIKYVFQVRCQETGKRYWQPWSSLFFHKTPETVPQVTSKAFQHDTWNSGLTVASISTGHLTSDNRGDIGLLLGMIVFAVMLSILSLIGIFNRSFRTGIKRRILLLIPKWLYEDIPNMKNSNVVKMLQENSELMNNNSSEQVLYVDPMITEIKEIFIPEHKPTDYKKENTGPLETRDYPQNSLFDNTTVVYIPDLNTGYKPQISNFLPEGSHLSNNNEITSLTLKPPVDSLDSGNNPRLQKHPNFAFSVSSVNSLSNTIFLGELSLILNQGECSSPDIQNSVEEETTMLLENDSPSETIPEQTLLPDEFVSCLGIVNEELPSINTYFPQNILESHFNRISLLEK
The test can be described thus: IL-23R reporter gene assay (HEK-blue IL23 reporter gene cell line, rhIL23 stimulation). It is filed as cell-based. The conditions noted are these: Inhibition of IL-23R, rhIL23 1 ng/mL, 24 hours. How it is done:
2. IL-23R reporter gene assay
The purpose of this assay was to assess the ability of compounds to inhibit the binding of IL23p19 to IL23R in a reporter gene system. The HEK-blue IL23 reporter gene cell line (Invivogen, hkb-il23) was cultured in DMEM + 10% FBS + 100 ug/mL Normocin medium. When the cell density reached 80%-90%, 5000 cells/well were plated into a 384-well plate, and the plate was incubated overnight at 37°C with 5% CO2. Then, the compound stock solution was diluted in DMSO, and 40 nL of the dilution was transferred into the 384-well culture plate by Echo. The plate was incubated at 37°C with 5% CO2 for 0.5 hours. 40 nL/well of rhIL23 (R&D, 1290-IL) was added to the 384-well cell culture plate at a final concentration of 1 ng/mL, and the plate was incubated at 37°C with 5% CO2 for 24 hours. 18 µL of Quanti-Blue™ solution was added to a new 384-well plate. 2 µL/well of cell culture supernatant was transferred into the 384-well plate prepared in Step 6, and the plate was incubated at 37°C with 5% CO2 for 1 hour. Absorbance values at […] were read on BMG. The binding ability of the compounds was assessed using the following formula, and IC50 values were obtained by fitting with Graphpad.
as §1
The calculation formula of IC50 was as follows: Y = Bottom + (Top−Bottom)/(1+10^(∧)((LogIC50−X)*HillSlope)) [formula] • where X: concentration of compound; and • Y: inhibition rate of compound Table 2. Inhibition of IL-23R by test compounds

Chain of (Homo sapiens, UniProt Q5VWK5) (Q9NPF7 20-189 partner, other chains not shown): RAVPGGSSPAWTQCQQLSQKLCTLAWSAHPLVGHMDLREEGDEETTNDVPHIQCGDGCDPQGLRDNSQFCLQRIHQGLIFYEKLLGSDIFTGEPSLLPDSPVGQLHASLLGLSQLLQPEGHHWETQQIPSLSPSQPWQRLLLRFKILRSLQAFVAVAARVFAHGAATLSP
Chain of (Homo sapiens, UniProt Q5VWK5) (P29460 23-328 partner, other chains not shown): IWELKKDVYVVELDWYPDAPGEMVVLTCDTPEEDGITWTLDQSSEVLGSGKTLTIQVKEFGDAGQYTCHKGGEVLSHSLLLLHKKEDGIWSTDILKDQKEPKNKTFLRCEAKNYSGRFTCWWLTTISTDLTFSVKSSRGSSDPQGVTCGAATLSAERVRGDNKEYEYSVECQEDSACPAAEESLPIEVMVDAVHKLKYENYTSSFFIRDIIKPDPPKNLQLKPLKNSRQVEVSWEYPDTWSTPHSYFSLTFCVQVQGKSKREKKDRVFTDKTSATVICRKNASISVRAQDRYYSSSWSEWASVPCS

For the molecule `CC(=O)N[C@@H]1C(=O)N[C@@H](Cc2c[nH]cn2)C(=O)N[C@@H]([C@@H](C)O)C(=O)N[C@@H](Cc2c[nH]c3c(C)cccc23)C(=O)N[C@@H](CCC(N)=O)C(=O)N[C@H](C(=O)N[C@@H](Cc2ccc(OCCN)cc2)C(=O)N[C@@H](Cc2ccc3ccccc3c2)C(=O)NC2(C(=O)N[C@@H](CCC(=O)O)C(=O)N[C@@H](CC(N)=O)C(=O)N[C@@H](Cc3cccnc3)C(=O)N(C)CC(N)=O)CCOCC2)C(C)(C)SSC1(C)C` [Compound 1] (Ac-[Pen]HT[Trp(7-Me)]Q[Pen][AEF][2Nal][Thp]EN[3Pal][Sar]-NH2; disulfide 1-6), the IC50 in test [1] is 0.0071 nM; on IL-23α/IL-12β and IL-23R, 0.0642 nM; on IL-23R, 1.1 nM.
As for `CC(=O)N[C@@H]1C(=O)N[C@@H](Cc2c[nH]cn2)C(=O)N[C@@H]([C@@H](C)O)C(=O)N[C@@H](Cc2c[nH]c3c(C)cccc23)C(=O)N[C@@H](CCCNC(N)=O)C(=O)N[C@H](C(=O)N[C@@H](Cc2ccc(OCCN)cc2)C(=O)N[C@@H](Cc2ccc3ccccc3c2)C(=O)NC2(C(=O)N[C@@H](CCC(=O)O)C(=O)N[C@@H](CC(N)=O)C(=O)N[C@@H](Cc3cccnc3)C(=O)N(C)CC(N)=O)CCOCC2)C(C)(C)SSC1(C)C` [Compound 2] (Ac-[Pen]HT[Trp(7-Me)][Cit][Pen][AEF][2Nal][Thp]EN[3Pal][Sar]-NH2; disulfide 1-6), the IC50 amounted to 0.0068 nM in test [1]; 0.0768 nM on IL-23α/IL-12β and IL-23R; 1.21 nM on IL-23R.
In the case of `CC(=O)NCCCC[C@@H]1NC(=O)[C@H](Cc2c[nH]c3c(C)cccc23)NC(=O)[C@H]([C@@H](C)O)NC(=O)[C@H](Cc2c[nH]cn2)NC(=O)[C@@H](NC(C)=O)C(C)(C)SSC(C)(C)[C@@H](C(=O)N[C@@H](Cc2ccc(OCCN)cc2)C(=O)N[C@@H](Cc2ccc3ccccc3c2)C(=O)NC2(C(=O)N[C@@H](CCC(=O)O)C(=O)N[C@@H](CC(N)=O)C(=O)N[C@@H](Cc3cccnc3)C(=O)N(C)CC(N)=O)CCOCC2)NC1=O` [Compound 3] (Ac-[Pen]HT[Trp(7-Me)]K(Ac)[Pen][AEF][2Nal][Thp]EN[3Pal][Sar]-NH2; disulfide 1-6), the IC50 in test [1] was 0.0066 nM; on IL-23α/IL-12β and IL-23R it was 0.174 nM; against IL-23R, 1.36 nM.
`CC(=O)N[C@@H]1C(=O)N[C@@H](Cc2c[nH]cn2)C(=O)N[C@@H]([C@@H](C)O)C(=O)N[C@@H](Cc2c[nH]c3c(C4CC4)cccc23)C(=O)N[C@@H](CCC(N)=O)C(=O)N[C@H](C(=O)N[C@@H](Cc2ccc(OCCN)cc2)C(=O)N[C@@H](Cc2ccc3ccccc3c2)C(=O)NC2(C(=O)N[C@@H](CCC(=O)O)C(=O)N[C@@H](CC(N)=O)C(=O)N[C@@H](Cc3cccnc3)C(=O)N(C)CC(N)=O)CCOCC2)C(C)(C)SSC1(C)C` [Compound 13] (Ac-[Pen]HT[Trp(7-cPr)]Q[Pen][AEF][2Nal][Thp]EN[3Pal][Sar]-NH2; disulfide 1-6): the IC50 in test [1] stood at 0.001 nM; on IL-23α/IL-12β and IL-23R, 0.0384 nM; on IL-23R, 3.12 nM.
In the same order, the values of `CC(=O)N[C@@H]1C(=O)N[C@@H](Cc2c[nH]cn2)C(=O)N[C@@H]([C@@H](C)O)C(=O)N[C@@H](Cc2c[nH]c3c(C)cccc23)C(=O)N[C@@H](CCC(N)=O)C(=O)N[C@H](C(=O)N[C@@H](Cc2ccc(OCCN)c3c2CCC3)C(=O)N[C@@H](Cc2ccc3ccccc3c2)C(=O)NC2(C(=O)N[C@@H](CCC(=O)O)C(=O)N[C@@H](CC(N)=O)C(=O)N[C@@H](Cc3cccnc3)C(=O)N(C)CC(N)=O)CCS(=O)(=O)CC2)C(C)(C)SSC1(C)C` [Compound 15] (Ac-[Pen]HT[Trp(7-Me)]Q[Pen][Phe(4-OC2H4NH2,2,3-(CH2)3)][2Nal][Thp(SO2)]EN[3Pal][Sar]-NH2; disulfide 1-6) are 0.0062 nM, 0.075 nM and 5.26 nM.
For the molecule `CC(=O)N[C@H]1CC(=O)NCC[C@@H](C(=O)N[C@@H](Cc2ccc(OCCN)cc2)C(=O)N[C@@H](Cc2ccc3ccccc3c2)C(=O)NC2(C(=O)N[C@@H](CCC(=O)O)C(=O)N[C@@H](CC(N)=O)C(=O)N[C@@H](Cc3cccnc3)C(=O)N(C)CC(N)=O)CCOCC2)NC(=O)[C@H](CCC(N)=O)NC(=O)[C@H](Cc2c[nH]c3c(C)cccc23)NC(=O)[C@H]([C@@H](C)O)NC(=O)[C@H](Cc2c[nH]cn2)NC1=O` [Compound 22] (Ac-DHT[Trp(7-Me)]Q[Dab][AEF][2Nal][Thp]EN[3Pal][Sar]-NH2; lactam 1-6), the IC50 in test [1] worked out at 0.0157 nM; at IL-23α/IL-12β and IL-23R, 0.129 nM.
